One compound from PMC4954948, “Functional and modular analyses of diverse endoglucanases from Ruminococcus albus 8, a specialist plant cell wall degrading bacterium” (Scientific Reports, 2016) can be followed below.

Experiment in all cases: isothermal titration calorimetry
What all share (format): binding
(In ITC the heat of successive injections is recorded.)

One assay deals with T1, Ra2535 TM1 (Hominimerdicola alba, UniProt E9SAY7).
T1 construct: gene CUS_8100
The conditions noted are these: 25 °C, 50 mM sodium phosphate, 150 mM NaCl, pH 6.5; single site model; read-out: affinity constant (converted). From the text:
isothermal titration calorimetry on Ra2535 TM1 | The affinity constants of Ra2535 TM1 and TM2 for cellopentaose were similar

The target of a further assay is T2, Ra1831 TM1 (Hominimerdicola alba, UniProt E9SGH0).
T2 construct: gene CUS_6389; truncation: C-terminal half of Ra1831 with region of unknown function (CBM65-like) plus CBM37, GH5 domain removed
T2 sequence (E9SGH0 entry or part of it): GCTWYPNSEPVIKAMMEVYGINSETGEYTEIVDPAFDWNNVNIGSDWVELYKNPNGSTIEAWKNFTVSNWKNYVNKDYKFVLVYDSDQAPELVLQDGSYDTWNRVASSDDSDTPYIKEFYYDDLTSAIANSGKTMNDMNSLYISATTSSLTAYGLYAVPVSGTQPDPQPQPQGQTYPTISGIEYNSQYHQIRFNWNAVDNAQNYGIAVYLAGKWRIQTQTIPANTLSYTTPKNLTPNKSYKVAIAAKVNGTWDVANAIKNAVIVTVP
The conditions noted are these: 25 °C, 50 mM sodium phosphate, 150 mM NaCl, pH 6.5; weak, parameters not deducible.

For the next assay, the target named is T3, Ra2535 TM2 (Hominimerdicola alba, UniProt E9SAY7).
T3 construct: gene CUS_8100
T3 sequence (E9SAY7 entry or part of it): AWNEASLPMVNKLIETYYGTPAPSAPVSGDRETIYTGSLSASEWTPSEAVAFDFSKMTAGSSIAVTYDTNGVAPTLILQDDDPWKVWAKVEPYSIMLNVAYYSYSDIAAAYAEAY
The conditions noted are these: 25 °C, 50 mM sodium phosphate, 150 mM NaCl, pH 6.5; single site model; read-out: affinity constant (converted). An excerpt:
isothermal titration calorimetry on Ra2535 TM2 | The affinity constants of Ra2535 TM1 and TM2 for cellopentaose were similar

Structures are written as SMILES.

T1 sequence (E9SAY7 entry or part of it): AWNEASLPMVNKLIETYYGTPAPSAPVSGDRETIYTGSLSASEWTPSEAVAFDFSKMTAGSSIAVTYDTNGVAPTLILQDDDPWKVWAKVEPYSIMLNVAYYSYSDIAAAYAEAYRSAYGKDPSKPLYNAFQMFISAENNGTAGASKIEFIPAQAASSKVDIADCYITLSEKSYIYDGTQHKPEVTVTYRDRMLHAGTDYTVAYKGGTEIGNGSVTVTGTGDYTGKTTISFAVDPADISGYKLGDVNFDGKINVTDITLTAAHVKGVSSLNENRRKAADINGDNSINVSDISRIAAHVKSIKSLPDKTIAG

In the case of `OC[C@H]1O[C@@H](O[C@H]2[C@H](O)[C@@H](O)[C@H](O[C@H]3[C@H](O)[C@@H](O)[C@H](O[C@H]4[C@H](O)[C@@H](O)[C@H](O[C@H]5[C@H](O)[C@@H](O)C(O)O[C@@H]5CO)O[C@@H]4CO)O[C@@H]3CO)O[C@@H]2CO)[C@H](O)[C@@H](O)[C@@H]1O` (stereo partly drawn) [cellopentaose], the Kd on Ra2535 TM1 and at Ra2535 TM2 was 5.95 µM in each case. Moreover, the isothermal titration calorimetry entry at Ra1831 TM1 is on record as “The representative ITC data for Ra1831 TM1 was not very different from that of TM2”.
